Experimental data from PubChem BioAssay (NCI).
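Dose response: 5 concentrations. Exposure: 48 h. Format: 96-well plates. Endpoint: linear interpolation; highest concentration if not reached. TGI is the concentration that stops growth completely.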

Experiments:
Assay in all cases: DTP human tumour cell line panel, 48 h
[1] = test system: 786-0 renal
[2] = test system: A549 NSCLC
[3] = test system: ACHN renal
[4] = test system: BT-549 breast
[5] = test system: CAKI-1 renal
[6] = test system: CCRF-CEM leukemia
[7] = test system: COLO 205 colon
[8] = test system: DU-145 prostate
[9] = test system: EKVX NSCLC
[10] = test system: HCC-2998 colon
[11] = test system: HCT-116 colon
[12] = test system: HCT-15 colon
[13] = test system: HL-60(TB) leukemia
[14] = test system: HOP-62 NSCLC
[15] = test system: HOP-92 NSCLC
[16] = test system: HS 578T breast
[17] = test system: HT29 colon
[18] = test system: IGROV1 ovarian
[19] = test system: K-562 leukemia
[20] = test system: KM12 colon
[21] = test system: LOX IMVI melanoma
[22] = test system: M14 melanoma
[23] = test system: MALME-3M melanoma
[24] = test system: MCF7 breast
[25] = test system: MDA-MB-231 breast
[26] = test system: MDA-MB-435
[27] = test system: MDA-N
[28] = test system: MOLT-4 leukemia
[29] = test system: NCI-H226 lung
[30] = test system: NCI-H23 lung
[31] = test system: NCI-H460 lung
[32] = test system: NCI-H522 lung
[33] = test system: NCI/ADR-RES ovarian
[34] = test system: OVCAR-3 ovarian
[35] = test system: OVCAR-4 ovarian
[36] = test system: OVCAR-5 ovarian
[37] = test system: PC-3 prostate
[38] = test system: RPMI-8226 leukemia
[39] = test system: RXF 393 renal
[40] = test system: SF-268 CNS
[41] = test system: SF-539 CNS
[42] = test system: SK-MEL-28 melanoma
[43] = test system: SK-MEL-5 melanoma
[44] = test system: SK-OV-3 ovarian
[45] = test system: SN12C renal
[46] = test system: SNB-19 CNS
[47] = test system: SNB-75 CNS
[48] = test system: SR leukemia
[49] = test system: SW-620 colon
[50] = test system: T-47D breast
[51] = test system: TK-10 renal
[52] = test system: U251 CNS
[53] = test system: UACC-62 melanoma
[54] = test system: UO-31 renal
[55] = test system: A498 renal
[56] = test system: OVCAR-8 ovarian
[57] = test system: SF-295 CNS
[58] = test system: SK-MEL-2 melanoma
[59] = test system: UACC-257 melanoma

N/C(CCSCCSCC/C(N)=N\O)=N\O
TGI [1]: > 100 µM | TGI [2]: > 100 µM | TGI [3]: > 100 µM | TGI [4]: > 100 µM | TGI [5]: > 100 µM | TGI [6]: > 100 µM | TGI [7]: > 100 µM | TGI [8]: > 100 µM | TGI [9]: > 100 µM | TGI [10]: > 100 µM | TGI [11]: > 100 µM | TGI [12]: > 100 µM | TGI [13]: > 100 µM | TGI [14]: > 100 µM | TGI [15]: > 100 µM | TGI [16]: > 100 µM | TGI [17]: > 100 µM | TGI [18]: > 100 µM | TGI [19]: > 100 µM | TGI [20]: > 100 µM | TGI [21]: > 100 µM | TGI [22]: > 100 µM | TGI [23]: > 100 µM | TGI [24]: > 100 µM | TGI [25]: > 100 µM | TGI [26]: > 100 µM | TGI [27]: > 100 µM | TGI [28]: > 100 µM | TGI [29]: > 100 µM | TGI [30]: > 100 µM | TGI [31]: > 100 µM | TGI [32]: > 100 µM | TGI [33]: > 100 µM | TGI [34]: > 100 µM | TGI [35]: > 100 µM | TGI [36]: > 100 µM | TGI [37]: > 100 µM | TGI [38]: > 100 µM | TGI [39]: > 100 µM | TGI [40]: > 100 µM | TGI [41]: > 100 µM | TGI [42]: > 100 µM | TGI [43]: > 100 µM | TGI [44]: > 100 µM | TGI [45]: > 100 µM | TGI [46]: > 100 µM | TGI [47]: > 100 µM | TGI [48]: > 100 µM | TGI [49]: > 100 µM | TGI [50]: > 100 µM | TGI [51]: > 100 µM | TGI [52]: > 100 µM | TGI [53]: > 100 µM | TGI [54]: > 100 µM

COC(=O)c1ccc(CCC2=CC(=O)C=CC2=O)cc1
TGI [1]: 5.58 µM | TGI [55]: 32.9 µM | TGI [2]: 60.5 µM | TGI [3]: 20.4 µM | TGI [4]: 24.4 µM | TGI [5]: 13.6 µM | TGI [6]: 2 µM | TGI [7]: 26.6 µM | TGI [8]: 33.8 µM | TGI [9]: 38.7 µM | TGI [10]: 30.8 µM | TGI [11]: 25.9 µM | TGI [12]: 23 µM | TGI [13]: 4.79 µM | TGI [14]: 39.3 µM | TGI [15]: 25.1 µM | TGI [16]: 75.2 µM | TGI [17]: 53.4 µM | TGI [18]: 30.2 µM | TGI [19]: 8.9 µM | TGI [20]: 27 µM | TGI [21]: 24.2 µM | TGI [22]: 32.4 µM | TGI [24]: 30 µM | TGI [25]: > 68.4 µM | TGI [26]: 28 µM | TGI [27]: 27.6 µM | TGI [28]: 4.92 µM | TGI [29]: 48.3 µM | TGI [30]: 39.4 µM | TGI [31]: 35.9 µM | TGI [32]: 3.14 µM | TGI [33]: 61.2 µM | TGI [34]: 23.2 µM | TGI [35]: 38.4 µM | TGI [36]: 33.8 µM | TGI [56]: 50.7 µM | TGI [37]: 27.7 µM | TGI [38]: 5.71 µM | TGI [39]: 25.3 µM | TGI [40]: 31.7 µM | TGI [57]: 30.6 µM | TGI [41]: 25.6 µM | TGI [58]: 30.4 µM | TGI [42]: 26 µM | TGI [43]: 30.2 µM | TGI [45]: > 55.9 µM | TGI [46]: > 56.2 µM | TGI [47]: 32 µM | TGI [48]: 5.82 µM | TGI [49]: 26.2 µM | TGI [50]: 8.79 µM | TGI [51]: 33 µM | TGI [52]: 24.8 µM | TGI [59]: 22.5 µM | TGI [53]: 29.3 µM | TGI [54]: 19.9 µM
